Experimental data published in patent US12492186B2, “Bicyclic heterocyclic compounds useful as IRAK4 inhibitors” (BRISTOL-MYERS SQUIBB COMPANY, priority 2019, dated 2025).

What was measured:
IRAK4 = IRAK4 (Homo sapiens (Human), UniProt Q9NWZ3); experiment: IRAK4 Inhibition Assay; assay type: biochemical; settings: ATP 500 μM; IRAK4 0.6 nM; 60 min room temperature; Caliper LABCHIP 3000
Human whole blood = experiment: IRAK4 Whole Blood Assay (IL-6 levels after stimulation with TLR2 agonist lipoteichoic acid); assay type: cell-based; settings: 10 μg/mL lipoteichoic acid, 5 hours
Method in brief: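 ACD-A anticoagulated human whole blood preincubated with compound 60 min at 37 °C, 5% CO2, then stimulated 5 h with lipoteichoic acid at 10 μg/mL final. IL-6 in supernatants measured by flow cytometry bead assay.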

Sequence of IRAK4 (Q9NWZ3 whole entry, species assumed): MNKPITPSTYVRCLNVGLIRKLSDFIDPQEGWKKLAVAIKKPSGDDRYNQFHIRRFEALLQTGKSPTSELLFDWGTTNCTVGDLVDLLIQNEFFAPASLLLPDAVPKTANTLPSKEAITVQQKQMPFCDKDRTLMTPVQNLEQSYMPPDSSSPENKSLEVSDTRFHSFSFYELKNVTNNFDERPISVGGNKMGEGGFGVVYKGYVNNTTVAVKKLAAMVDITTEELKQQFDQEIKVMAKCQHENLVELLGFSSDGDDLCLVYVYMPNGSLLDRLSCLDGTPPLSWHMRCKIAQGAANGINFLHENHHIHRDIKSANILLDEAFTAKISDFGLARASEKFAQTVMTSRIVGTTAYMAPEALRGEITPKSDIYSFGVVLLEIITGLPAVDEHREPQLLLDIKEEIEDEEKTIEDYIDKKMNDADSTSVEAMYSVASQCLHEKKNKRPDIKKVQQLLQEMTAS

| IC50 (IRAK4) [µM] | EC50 (Human whole blood) [µM] | Structure (SMILES) |
| --- | --- | --- |
| 0.021 | 3.77 | CC(C)Nc1c(C(=O)NCC2CCS(=O)(=O)CC2)cnc2ccc(-c3cn[nH]c3)cc12 [Example 107, N-((1,1-dioxidotetrahydro-2H-thiopyran-4-yl)methyl)-4-(isopropylamino)-6-(1H-pyrazol-4-yl)quinoline-3-carboxamide] |
| 0.009 | 0.455 | CC(C)Nc1c(C(=O)NC2CCN(C(=O)N3CCOCC3)CC2)cnc2ccc(-c3cn[nH]c3)cc12 [Example 82, 4-(isopropylamino)-N-(1-(morpholine-4-carbonyl)piperidin-4-yl)-6-(1H-pyrazol-4-yl) quinoline-3-carboxamide] |
| 0.0146 | 0.549 | CC(C)Nc1c(C(=O)NCCC(F)(F)F)cnc2ccc(-c3cn[nH]c3)cc12 [Example 43, 4-(isopropylamino)-6-(1H-pyrazol-4-yl)-N-(3,3,3-trifluoropropyl)quinoline-3-carboxamide] |
| 0.0072 | 1.7 | CC(C)Nc1c(C(=O)N[C@H]2CC[C@H](N)CC2)cnc2ccc(-c3cn[nH]c3)cc12 [Example 23, N-((1r,4r)-4-aminocyclohexyl)-4-(isopropylamino)-6-(1H-pyrazol-4-yl)quinoline-3-carboxamide] |
| 0.0043 | 0.662 | CC(=O)N[C@H]1CC[C@H](NC(=O)c2cnc3ccc(-c4cncs4)nc3c2NC(C)C)CC1 [Example 156, N-((1r,4r)-4-acetamidocyclohexyl)-4-(isopropylamino)-6-(thiazol-5-yl)-1,5-naphthyridine-3-carboxamide] |
| 0.0027 | 0.175 | CC(C)Nc1c(C(=O)NCCC2CC2)cnc2ccc(-c3cn[nH]c3)nc12 [Example 149, N-(2-cyclopropylethyl)-4-(isopropylamino)-6-(1H-pyrazol-4-yl)-1,5-naphthyridine-3-carboxamide] |
| 0.0041 | 0.606 | CC1(Nc2c(C(=O)NCC3CCS(=O)(=O)C3)cnc3ccc(-c4cn[nH]c4)cc23)CC1 (centres unmarked) [Example 123, N-((1,1-dioxidotetrahydrothiophen-3-yl)methyl)-4-((1-methylcyclopropyl)amino)-6-(1H-pyrazol-4-yl)quinoline-3-carboxamide] |
| 0.0026 | 0.501 | CC(C)Nc1c(C(=O)NC[C@@H](F)C(C)(C)O)cnc2ccc(-c3cn[nH]c3)cc12 [Example 1, (R)—N-(2-fluoro-3-hydroxy-3-methylbutyl)-4-(isopropylamino)-6-(1H-pyrazol-4-yl) quinoline-3-carboxamide] |
| 0.008 | 0.936 | CC(C)Nc1c(C(=O)NCCC(C)(C)O)cnc2ccc(-c3cn[nH]c3)cc12 [Example 17, N-(3-hydroxy-3-methylbutyl)-4-(isopropylamino)-6-(1H-pyrazol-4-yl)quinoline-3-carboxamide] |
| 0.0141 | 0.868 | CC(C)Nc1c(C(=O)NCc2cnco2)cnc2ccc(-c3cn[nH]c3)cc12 [Example 14, 4-(isopropylamino)-N-(oxazol-5-ylmethyl)-6-(1H-pyrazol-4-yl)quinoline-3-carboxamide] |
| 0.0097 | 2.08 | CC(C)Nc1c(C(=O)NCCC2CCNC2)cnc2ccc(-c3cn[nH]c3)cc12 (centres unmarked) [Example 97, 4-(isopropylamino)-6-(1H-pyrazol-4-yl)-N-(2-(pyrrolidin-3-yl)ethyl)quinoline-3-carboxamide] |
| 0.0068 | 0.458 | CC(C)Nc1c(C(=O)NCC2CCS(=O)(=O)C2)cnc2ccc(-c3cn[nH]c3)cc12 (centres unmarked) [Example 87, N-((1,1-dioxidotetrahydrothiophen-3-yl)methyl)-4-(isopropylamino)-6-(1H-pyrazol-4-yl)quinoline-3-carboxamide] |
| 0.016 | 4.74 | Cc1cc2ncc(C(=O)NCCC(C)(C)O)c(NC(C)C)c2cc1-c1cn[nH]c1 [Example 59, N-(3-hydroxy-3-methylbutyl)-4-(isopropylamino)-7-methyl-6-(1H-pyrazol-4-yl)quinoline-3-carboxamide] |
